Results: US20240130988A1, “Use of stilbene compounds in the preparation of anti-tumor drugs” (Guangzhou AnHao Pharmaceutical Technology CO., LTD., priority 2022, published 2024)
Like-named read-outs stand apart in the source and are kept apart here.

Tests used:
human lung cancer A549 = assay: Human lung cancer A549 transplanted tumors in nude mice; assay type: in vivo, BALB/C nude mice; conditions: A549, 400 mg/kg ig × 14; for inhibition in vivo at 400 mg/kg: Mus musculus, po, read-out: Tumor inhibitory rate %
Procedure: In this experiment, a human lung cancer A549 model transplanted into nude mice was selected to study the anti-tumor effect of test compounds. The mice were treated at a dosage of 400 mg/kg by gavage for 14 days, and the tumor inhibition rate against human lung cancer A549 was measured.
Preparation: The compound was prepared as the solution at the desired concentration with distilled water, prior to administration.
Animal strain: BALB/C nude mice (SPF grade), weight: 19-21 g, gender: male. Number of animals in each treatment group: 8; Number of animals in the control group: >12.
(§1) Lung cancer A549 tumor blocks with good growth were chosen and cut into uniform small pieces of 3 mm under sterile conditions, and then subcutaneously inoculated into the right armpit of each mouse with a cannula. These mice were divided into 9 groups, 8 mice for each treatment group, while more than 12 mice were included in the control group.
14 days after inoculation, the average volume of the tumor mass was about 100 mm^3. The animals were regrouped based on the size of the tumor, and the mice with tumors that were too large and too small were eliminated. For each group, the average volume of tumors was basically the same, and then the mice were treated with test compounds. The mice in the treatment groups were administered once a day by gavage for 14 successive days, at a dosage of 0.5 mL/20 g body weight; the mice in the control group were given the same volume of physiological saline. From the 14th day of inoculation, the long diameter a (mm) of the tumor, together with the perpendicular short diameter b (mm), was measured using a digital electronic caliper, twice a week. The calculation formula of tumor volume is: TV=ab^2/2, and the formula for calculating the relative tumor volume is RTV=Vt/Vo, wherein Vo denotes the tumor volume measured when the mice were divided into groups (i.e. d1), and Vt is the tumor volume from each measurement.
(§2) The result determination is based on the following formula: […]

[1] = test system: LLC (mouse lung cancer cells); assay: Enrichment of CD8+ cytotoxic T lymphocytes in tumor tissue, Lewis non-small cell lung cancer model of mice; assay type: in vivo; conditions: 400 mg/kg ip once a day for 10 days, CD8+ immunohistochemistry
[2] = test system: human liver cancer Bel7404; assay: Compound 3 combined with lenvatinib, human liver cancer Bel7404 xenograft in nude mice; assay type: in vivo; conditions: po: lenvatinib 10 mg/kg, compound 3 400 mg/kg, combination 10 + 400
Text: Experimental method: The model of human liver cancer Bel7404 transplant tumor in nude mice was established by subcutaneously inoculating human liver cancer Bel7404 cell lines into the armpits of nude mice. Cells were inoculated in an amount of 1×10^6, and after formation of the transplanted tumors by inoculation, the cells were passed 3 generations in nude mice before use. The vigorous growth of tumor tissue was cut into approximate 1.5 mm^3, and homogenized under sterile conditions, to prepare 1×10^7/mL of cell suspension. 0.1 mL of cell suspension was subcutaneously inoculated into the right armpit of nude mice. For transplanted tumors in nude mice, the diameter of the transplanted tumor was measured with vernier caliper. After the tumor grew to 100 mm^3, the animals were randomly divided into groups, with 6 animals in each group. Using the method of measuring tumor diameter, the anti-tumor effect of test compound was dynamically observed. Compound 3 was orally administered at 400 mg/kg, once a day, for three weeks; lenvartinib was also orally administered at 10 mg/kg, once a day, for two weeks. The measurement frequency of tumor diameter was once every three days. The animals in the negative control group were orally given an equal amount of physiological saline. The effect of combined medicaments was evaluated based on the Q value calculated by the Jin's formula: […]
Ea+b represents the tumor inhibitory rate of the combined medicaments, while Ea and Eb represent the tumor inhibitory rates of medicament A and medicament B, respectively. For example, the Q value of 0.85-1.15 means additive action (+), and the Q value of >1.15 means synergistic action (++).

[3] = test system: human liver cancer QGY7703; assay: Human liver cancer QGY7703 transplanted tumor in nude mice; assay type: in vivo, BALB/C nude mice; set-up: key to RTV (d 18): RTV = Vt/Vo, tumor volume relative to volume at grouping (d1); conditions: for inhibition in vivo at 100 mg/kg: Mus musculus, read-out: Tumor inhibitory rate %
Procedure: A human liver cancer QGY7703 model transplanted into nude mice was used in the experiment to investigate the anti-tumor effect of test compounds. The mice were intravenously injected at a dosage of 100 mg/kg for 14 days, and the tumor inhibition rate against human liver cancer QGY7703 was measured.
Preparation: The compound was prepared as the injection at the desired concentration with sterile normal saline, prior to administration.
Animal strain: BALB/C nude mice (SPF grade), weight: 19-21 g, gender: male. Number of animals in each treatment group: 8; number of animals in the control group: >12.
as §1, with “The” for “Lung cancer A549”, “blocks of human liver cancer QGY7703” for “blocks”, “were” for “were chosen and”
14 days after inoculation, the average volume of the tumor block was about 100 mm^3. The animals were regrouped based on the size of the tumor, and the animals with tumors that were too large and too small were sifted out. For each group, the average volume of tumors was basically the same, and then the mice were initially treated with test compounds. The mice in the treatment groups were intravenously injected once a day for 14 days, at a dosage of 0.1 mL/20 g body weight; the mice in the control group were given the same volume of sterile normal saline. From the 14th day of inoculation, the long diameter a (mm) of the tumor, together with the perpendicular short diameter b (mm), was measured using a digital electronic caliper, twice a week. The calculation formula of tumor volume is: TV=ab^2/2, and the formula for calculating the relative tumor volume is RTV=Vt/Vo, wherein Vo denotes the tumor volume measured when the mice were divided into groups (i.e. d1), and Vt is the tumor volume from each measurement.
as §2

[4] = test system: human gastric cancer SGC7901; assay: Compound 6 combined with paclitaxel, human gastric cancer SGC7901 xenograft in nude mice; assay type: in vivo; conditions: paclitaxel 10 mg/kg iv, compound 6 200 mg/kg ip, combination 10 + 200
Text: Experimental method: The model of human gastric cancer SGC7901 transplant tumor in nude mice was established by subcutaneously inoculating human gastric cancer SGC7901 cell lines into the armpits of nude mice. Cells were inoculated in an amount of 1×10^6, and after formation of the transplanted tumors by inoculation, the cells were passed 3 generations in nude mice before use. The vigorous growth of tumor tissue was cut into approximate 1.5 mm^3, and homogenized under sterile conditions, to prepare 1×10^7/mL of cell suspension. 0.1 mL of cell suspension was subcutaneously inoculated into the right armpit of nude mice. For transplanted tumors in nude mice, the diameter was measured with vernier caliper. After the tumor grew to 100 mm^3, the animals were randomly divided into groups, with 6 mice in each group. […] The measurement frequency of tumor diameter was once every three days. The dosage by volume was 0.1 mL/20 g. The mice in the negative control group were given an equal amount of physiological saline by intravenous injection. The effect of combined medicaments was evaluated based on the Q value calculated by Jin's formula: […]
Ea+b represents the tumor inhibitory rate of the combined medicaments, while Ea and Eb represent the tumor inhibitory rates of medicament A and medicament B, respectively.

[5] = QGY-7703, QGY7703, 100 mg/kg iv × 14

With `COc1ccc(/C=C(/C(=O)O)c2cc(OC)c(OC)c(OC)c2)c(O)c1O` [Compound 1, (E)-3-(2,3-dihydroxy-4-methoxyphenyl)-2-(3,4,5-trimethoxylphenyl)acrylic acid] the “RTV (d 22)” value (human lung cancer A549) was 4.27 ± 0.48, the inhibition in vivo at 400 mg/kg (human lung cancer A549) was 63.6% and the “The ratio of distribution area in tumor tissues (%)” value (“The ratio … (%)” below) ([1]; 400 mg/kg) was 6.265 ± 0.3673%.
For `COc1cc(/C=C(/C(=O)O)c2cc(OC)c(OC)c(OC)c2)cc(OC)c1` [Compound 3, (E)-3-(3,5-dimethoxyphenyl)-2-(3,4,5-trimethoxyphenyl)acrylic acid], the “RTV (d 21)” value [2] was 3.54 ± 1.87, the “Terminal weight” value [2] was 22.4 ± 0.6 g and the “Tumor inhibitory rate %” value [2] was 68.47%. The “RTV (d 22)” value (human lung cancer A549) was 4.52 ± 0.76, the inhibition in vivo at 400 mg/kg (human lung cancer A549) was 61.5% and the inhibition in vivo at 100 mg/kg ([3]; QGY-7703, iv) was 63.7%. The “RTV (d 18)” value ([3]; QGY7703, 100 mg/kg iv × 14) was 4.67 ± 0.63.
With `COc1ccc(/C=C(/C(=O)O)c2cc(OC)c(OC)c(OC)c2)cc1F` [Compound 4, (E)-3-(3-fluoro-4-methoxyphenyl)-2-(3,4,5-trimethoxyphenyl)acrylic acid] the “RTV (d 22)” value (human lung cancer A549) was 5.23 ± 1.43, the inhibition in vivo at 400 mg/kg (human lung cancer A549) was 55.5% and the inhibition in vivo at 100 mg/kg ([3]; QGY-7703, iv) was 60.3%. For the same compound, the “RTV (d 18)” value ([3]; QGY7703, 100 mg/kg iv × 14) was 5.11 ± 0.76.
With `COc1ccc(/C=C(/C(=O)O)c2cc(OC)c(OC)c(OC)c2)cc1O` [Compound 6, (E)-3-(3-hydroxy-4-methoxyphenyl)-2-(3,4,5-trimethoxyphenyl)acrylic acid] the “RTV (d 22)” value (human lung cancer A549) was 2.51 ± 0.94, the “Tumor inhibitory rate %” value (human lung cancer A549) was “best inhibitory effect on lung cancer” and the inhibition in vivo at 400 mg/kg (human lung cancer A549) was 78.6%. For the same compound, the “The ratio … (%)” value [1] was 7.249 ± 0.6689%, the “RTV (d 21)” value [4] was 6.21 ± 1.88 and the “Terminal weight” value [4] was 22.9 ± 1.2 g. For the same compound, the “Tumor inhibitory rate %” value [4] was 54.07%, the inhibition in vivo at 100 mg/kg [3, 5] was 71.6% and the “RTV (d 18)” value ([3]; QGY7703, 100 mg/kg iv × 14) was 3.65 ± 0.47. The “Tumor inhibitory rate %” value ([3]; QGY7703, 100 mg/kg iv × 14) was “best inhibitory effect on liver cancer”.
With `COc1cc(/C(=C\c2cc(O)c(OC)c(F)c2)C(=O)O)cc(OC)c1OC` [Compound 8, (E)-3-(5-fluoro-3-hydroxy-4-methoxyphenyl)-2-(3,4,5-trimethoxyphenyl)acrylic acid] the “RTV (d 22)” value (human lung cancer A549) was 4.22 ± 0.75, the inhibition in vivo at 400 mg/kg (human lung cancer A549) was 64.1% and the “The ratio … (%)” value [1] was 6.543 ± 0.7256%.
In the case of `COc1ccc(/C=C(/C(=O)O)c2cc(OC)c(OC)c(OC)c2)c(F)c1O` [Compound 9, (E)-3-(2-fluoro-3-hydroxy-4-methoxyphenyl)-2-(3,4,5-trimethoxyphenyl)acrylic acid], the “The ratio … (%)” value [1] is reported as 6.258 ± 0.6573%, the inhibition in vivo at 100 mg/kg [3, 5] is reported as 63.7% and the “RTV (d 18)” value ([3]; QGY7703, 100 mg/kg iv × 14) is reported as 4.67 ± 0.58.
With `COc1cc(/C=C(/C(=O)[O-])c2cc(OC)c(OC)c(OC)c2)cc(OC)c1F.[K+]` [Compound 10] the inhibition in vivo at 100 mg/kg ([3]; QGY-7703, iv) was 61.3% and the “RTV (d 18)” value ([3]; QGY7703, 100 mg/kg iv × 14) was 4.98 ± 0.72.
With `COc1cc(/C(=C\c2cc(O)c(OC)c(O)c2)C(=O)O)cc(OC)c1OC` [Compound 11, (E)-3-(3,5-dihydroxy-4-methoxyphenyl)-2-(3,4,5-trimethoxyphenyl)acrylic acid] the “RTV (d 22)” value (human lung cancer A549) was 4.07 ± 0.51, the inhibition in vivo at 400 mg/kg (human lung cancer A549) was 65.4% and the “The ratio … (%)” value [1] was 5.735 ± 0.5952%.
